In one experiment the target is T1, human ALK2 R206H (Homo sapiens, UniProt Q04771, R206H).
T1 construct: expressed in transfected cells; host or cells: HEK293 (ATCC CRL1573), lentivirus transduction, blasticidin selection
T1 sequence (Q04771 21-509 R206H): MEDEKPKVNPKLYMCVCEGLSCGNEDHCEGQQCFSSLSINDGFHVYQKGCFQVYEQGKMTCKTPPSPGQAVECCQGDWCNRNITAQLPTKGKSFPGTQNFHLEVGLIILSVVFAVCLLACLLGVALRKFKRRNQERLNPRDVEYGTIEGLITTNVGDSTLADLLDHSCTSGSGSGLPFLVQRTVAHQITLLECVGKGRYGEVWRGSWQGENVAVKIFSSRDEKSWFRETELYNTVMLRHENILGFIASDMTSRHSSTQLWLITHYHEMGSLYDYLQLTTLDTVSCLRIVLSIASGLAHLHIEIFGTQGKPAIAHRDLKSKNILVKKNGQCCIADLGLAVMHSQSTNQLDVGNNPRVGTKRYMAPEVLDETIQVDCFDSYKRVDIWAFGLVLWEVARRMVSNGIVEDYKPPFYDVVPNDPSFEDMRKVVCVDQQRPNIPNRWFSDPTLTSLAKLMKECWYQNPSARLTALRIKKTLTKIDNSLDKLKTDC
Description: Cell-based ALK2-R206H cell activity assay (Smad1-Ser463/Ser465 phosphorylation by AlphaLISA in HEK293-ALK2-R206H cells). The following applies: read-out: Cell Line (Cell Assay IC50). In short, it runs like this:
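Stable HEK293 cells expressing C-terminally FLAG-tagged human ALK2 R206H (lentiviral, blasticidin-selected) were treated with compounds in 10-point, 3-fold dilutions from 10 μM or 1 μM top, in duplicate. Smad1 Ser463/Ser465 phosphorylation was read by AlphaLISA.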

The target of experiment [1] is T2, ALK2 R206H (GST-tagged mutant ALK2) (Homo sapiens, UniProt Q04771, R206H).
T2 construct: purchased Carna Bioscience or ThermoFisher 09-148 or PV6232
T2 sequence (Q04771 21-509 R206H): T1 sequence (Q04771 21-509 R206H)
Description: ALK binding assay (LANTHASCREEN TR-FRET competitive binding, displacement of Kinase Tracer 178). The following applies: ALK2 R206H, LANTHASCREEN TR-FRET competitive binding; read-out: Binding Assay (IC50). (In general: In TR-FRET formats the signal depends on donor and acceptor labels being close together.)

What is called IC50 is the concentration needed to halve the response being measured. With `CC(C)N1CCC(c2ccc(-c3cc4c(N5CCN(C(=O)OC(C)(C)C)CC5)ccnn4c3)cc2)CC1` [Compound 632], the IC50 on human ALK2 R206H is 100 to 500 nM; in experiment [1] it was below 10 nM.

On to `CC(C)NC(=O)N1CCN(c2ccnn3cc(-c4ccc([C@@]5(C)CN(C(C)C)CCN5)cc4)cc23)CC1` [Compound 633], for which the IC50 on human ALK2 R206H was below 100 nM; in experiment [1] it was below 10 nM.

For `CC(C)NC(=O)N1CCN(c2ccnn3cc(-c4ccc([C@]5(C)CN(C(C)C)CCN5)cc4)cc23)CC1` [Compound 634], the IC50 on human ALK2 R206H was below 100 nM; in experiment [1] it was below 10 nM.

On to `CC(C)N1CCC[C@@H](c2ccc(-c3cc4c(N5CCN(C(=O)OC6COC6)CC5)ccnn4c3)nc2)C1` [Compound 635], for which the IC50 at human ALK2 R206H is below 100 nM; in experiment [1] it was below 10 nM.

For the molecule `CC(C)N1CCC[C@H](c2ccc(-c3cc4c(N5CCN(C(=O)OC6COC6)CC5)ccnn4c3)nc2)C1` [Compound 636], the values for the IC50 (at human ALK2 R206H; in experiment [1]) were below 100 nM and below 10 nM, respectively.

For `CO[C@]1(c2ccc(-c3cc4c(N5CCN(C(=O)NC(C)C)CC5)ccnn4c3)cc2)CCN(C(C)C)C1` [Compound 637], the IC50 on human ALK2 R206H is below 100 nM; in experiment [1], below 10 nM.

With `CO[C@@]1(c2ccc(-c3cc4c(N5CCN(C(=O)NC(C)C)CC5)ccnn4c3)cc2)CCN(C(C)C)C1` [Compound 638], the figures for the IC50 (at human ALK2 R206H; in experiment [1]) were below 100 nM and below 10 nM, respectively.

Turning to `CCOC(=O)N1CCN(c2ccnn3cc(-c4ccc([C@]5(C)CN(C(C)C)CCN5C)cc4)cc23)CC1` [Compound 641], the IC50 is below 100 nM at human ALK2 R206H and below 10 nM in experiment [1].

`CCOC(=O)N1CCN(c2ccnn3cc(-c4ccc([C@@]5(C)CN(C(C)C)CCN5C)cc4)cc23)CC1` [Compound 642]: the IC50 at human ALK2 R206H is below 100 nM; in experiment [1], below 10 nM.

`CCOC(=O)N1CCN(c2ccnn3cc(-c4ccc(C5(OC)CCN(C(C)C)CC5)cc4)cc23)CC1` [Compound 643]: the values for the IC50 (on human ALK2 R206H; in experiment [1]) were below 100 nM and below 10 nM, respectively.

For `CCNC(=O)N1CCN(c2ccnn3cc(-c4ccc(C5(OC)CCN(C(C)C)CC5)cn4)cc23)CC1` [Compound 644], the IC50 on human ALK2 R206H is below 100 nM; in experiment [1] it was below 10 nM.

For the molecule `CCNC(=O)N1CCN(c2ccnn3cc(-c4ccc([C@]5(OC)CCCN(C(C)C)C5)cn4)cc23)CC1` [Compound 645], the IC50 is below 100 nM at human ALK2 R206H and below 10 nM in experiment [1].

As for `CCNC(=O)N1CCN(c2ccnn3cc(-c4ccc([C@@]5(OC)CCCN(C(C)C)C5)cn4)cc23)CC1` [Compound 646], the IC50 was below 100 nM on human ALK2 R206H and below 10 nM in experiment [1].

For the molecule `CCOC1(c2ccc(-c3cc4c(N5CCN(C(=O)OC6COC6)CC5)ccnn4c3)nc2)CCNCC1` [Compound 647], the figures for the IC50 (at human ALK2 R206H; in experiment [1]) were below 100 nM and below 10 nM, respectively.

As for `CC(C)NC(=O)N1CCN(c2ccnn3cc(-c4ccc(C5(F)CCN(C(C)C)CC5)cc4)cc23)CC1` [Compound 648], the IC50 on human ALK2 R206H was below 100 nM; in experiment [1], below 10 nM.

Turning to `CC(C)NC(=O)N1CCN(c2ccnn3cc(-c4ccc(C5CCN(C(C)C)CC5)cc4F)cc23)CC1` [Compound 649], the IC50 was below 100 nM on human ALK2 R206H and below 10 nM in experiment [1].

Consider `COC1(c2ccc(-c3cc4c(N5CCN(C(=O)OC6COC6)CC5)ccnn4c3)c(F)c2)CCNCC1` [Compound 650], for which the IC50 is below 100 nM on human ALK2 R206H and below 10 nM in experiment [1].

For `CCOC(=O)N1CCN(c2ccnn3cc(-c4ccc(C5CCN(C(C)C)CC5)cc4Cl)cc23)CC1` [Compound 651], the IC50 was below 100 nM on human ALK2 R206H and below 10 nM in experiment [1].

Turning to `CC(C)N1CCC(c2ccc(-c3cc4c(N5CCN(C(=O)OCC(F)F)CC5)ccnn4c3)cc2)CC1` [Compound 652], the results for the IC50 (at human ALK2 R206H; in experiment [1]) were below 100 nM and below 10 nM, respectively.

`CC(C)N1CCC[C@@H](c2ccc(-c3cc4c(N5CCN(C(=O)[C@H]6C[C@H](C#N)C6)CC5)ccnn4c3)nc2)C1` [Compound 653]: the IC50 at human ALK2 R206H is below 100 nM; in experiment [1], below 10 nM.

As to `CC(C)N1CCC[C@H](c2ccc(-c3cc4c(N5CCN(C(=O)[C@H]6C[C@H](C#N)C6)CC5)ccnn4c3)nc2)C1` [Compound 654], the figures for the IC50 (at human ALK2 R206H; in experiment [1]) were below 100 nM and below 10 nM, respectively.

For `COC1(c2ccc(-c3cc4c(N5CCN(C(=O)C6CC(C#N)C6)CC5)ccnn4c3)cc2)CN(C(C)C)C1` (stereo not drawn) [Compound 655], the IC50 on human ALK2 R206H was below 100 nM; in experiment [1], below 10 nM.

On to `CCO[C@@]1(c2ccc(-c3cc4c(N5CCN(C(=O)C6CC6)CC5)ccnn4c3)cc2)CCCN(C(C)C)C1` [Compound 656], for which the IC50 is below 100 nM at human ALK2 R206H and below 10 nM in experiment [1].

With `CCO[C@]1(c2ccc(-c3cc4c(N5CCN(C(=O)C6CC6)CC5)ccnn4c3)cc2)CCCN(C(C)C)C1` [Compound 657], the IC50 on human ALK2 R206H was below 100 nM; in experiment [1] it was below 10 nM.

Turning to `CCOC1(c2ccc(-c3cc4c(N5CCN(C(=O)C6CC6)CC5)ccnn4c3)cc2)CCN(C(C)C)CC1` [Compound 658], the IC50 on human ALK2 R206H is below 100 nM; in experiment [1] it was below 10 nM.

With `COC1(c2ccc(-c3cc4c(N5CCN(C(=O)C6CC6)[C@H](C)C5)ccnn4c3)cc2)CCN(C(C)C)CC1` [Compound 659], the IC50 at human ALK2 R206H was below 100 nM; in experiment [1], below 10 nM.

As to `COC1(c2ccc(-c3cc4c(N5CCN(C(=O)C6CC6)CC5)ccnn4c3)nc2)CCN(C2COC2)CC1` [Compound 660], the IC50 on human ALK2 R206H is below 100 nM; in experiment [1], below 10 nM.

Regarding `CC(C)N1CCC(c2ccc(-c3cc4c(N5CCN(C(=O)NCC6COC6)CC5)ccnn4c3)cc2)CC1` [Compound 661], the IC50 is 100 to 500 nM at human ALK2 R206H and below 10 nM in experiment [1].

As to `CCOC1(c2ccc(-c3cc4c(N5CCN(C(=O)C6CC6)CC5)ccnn4c3)nc2)CCN(C(C)C)CC1` [Compound 662], the IC50 was below 100 nM at human ALK2 R206H and below 10 nM in experiment [1].

`CC(C)[C@@H](C)NC(=O)N1CCN(c2ccnn3cc(-c4ccc(C5CCN(C(C)C)CC5)cc4)cc23)CC1` [Compound 663]: the IC50 is below 100 nM on human ALK2 R206H and below 10 nM in experiment [1].

Turning to `CC(C)N1CCC(c2ccc(-c3cc4c(N5CCN(C(=O)NCC(C)(C)C)CC5)ccnn4c3)cc2)CC1` [Compound 664], the IC50 at human ALK2 R206H is 100 to 500 nM; in experiment [1], below 10 nM.

Turning to `CC(C)N1CCC(c2ccc(-c3cc4c(N5CCN(C(=O)OCC6COC6)CC5)ccnn4c3)cc2)CC1` [Compound 665], the IC50 was below 100 nM on human ALK2 R206H and below 10 nM in experiment [1].

As to `CC(C)N1CCC(c2ccc(-c3cc4c(N5CCN(C(=O)O[C@@H]6CCOC6)CC5)ccnn4c3)cc2)CC1` [Compound 666], the IC50 at human ALK2 R206H is below 100 nM; in experiment [1] it was below 10 nM.

Take `CC(C)N1CCC(c2ccc(-c3cc4c(N5CCN(C(=O)O[C@H]6CCOC6)CC5)ccnn4c3)cc2)CC1` [Compound 667]: the values for the IC50 (at human ALK2 R206H; in experiment [1]) were below 100 nM and below 10 nM, respectively.

`CC(C)N1CCC(C)(c2ccc(-c3cc4c(N5CCN(C(=O)OC6COC6)CC5)ccnn4c3)cc2)CC1` [Compound 668]: the IC50 on human ALK2 R206H was 100 to 500 nM; in experiment [1], below 10 nM.

As for `CC(C)N1CCC(c2ccc(-c3cc4c(N5CCN(C(=O)OC6COC6)[C@H](C)C5)ccnn4c3)cc2)CC1` [Compound 669], the results for the IC50 (at human ALK2 R206H; in experiment [1]) were below 100 nM and below 10 nM, respectively.

`CC(C)NC(=O)N1CCN(c2ccnn3cc(-c4ccc([C@]5(C)CN(C(C)C)CCN5C)cc4)cc23)CC1` [Compound 671]: the values for the IC50 (at human ALK2 R206H; in experiment [1]) were below 100 nM and below 10 nM, respectively.

For the molecule `CC(C)NC(=O)N1CCN(c2ccnn3cc(-c4ccc([C@@]5(C)CN(C(C)C)CCN5C)cc4)cc23)CC1` [Compound 672], the values for the IC50 (on human ALK2 R206H; in experiment [1]) were below 100 nM and below 10 nM, respectively.

Turning to `CCNC(=O)N1CCN(c2ccnn3cc(-c4ccc([C@]5(OCC)CCCN(C(C)C)C5)cc4)cc23)CC1` [Compound 673], the IC50 was below 100 nM on human ALK2 R206H and below 10 nM in experiment [1].

In the case of `CCNC(=O)N1CCN(c2ccnn3cc(-c4ccc([C@@]5(OCC)CCCN(C(C)C)C5)cc4)cc23)CC1` [Compound 674], the IC50 at human ALK2 R206H was below 100 nM; in experiment [1] it was below 10 nM.

`CCNC(=O)N1CCN(c2ccnn3cc(-c4ccc(C5(OCC)CCN(C(C)C)CC5)cc4)cc23)CC1` [Compound 675]: the figures for the IC50 (at human ALK2 R206H; in experiment [1]) were below 100 nM and below 10 nM, respectively.

Take `CCO[C@]1(c2ccc(-c3cc4c(N5CCN(C(=O)NC(C)C)CC5)ccnn4c3)cc2)CCN(C(C)C)C1` [Compound 676]: the figures for the IC50 (at human ALK2 R206H; in experiment [1]) were below 100 nM and below 10 nM, respectively.

`CCO[C@@]1(c2ccc(-c3cc4c(N5CCN(C(=O)NC(C)C)CC5)ccnn4c3)cc2)CCN(C(C)C)C1` [Compound 677]: the IC50 at human ALK2 R206H was below 100 nM; in experiment [1], below 10 nM.

With `CC(C)N1CC[C@H](O)[C@@H](c2ccc(-c3cc4c(N5CCN(C(=O)OC6COC6)CC5)ccnn4c3)cc2)C1` [Compound 678], the IC50 was below 100 nM at human ALK2 R206H and below 10 nM in experiment [1].

Turning to `CC(C)N1CC[C@@H](O)[C@H](c2ccc(-c3cc4c(N5CCN(C(=O)OC6COC6)CC5)ccnn4c3)cc2)C1` [Compound 679], the values for the IC50 (on human ALK2 R206H; in experiment [1]) were below 100 nM and below 10 nM, respectively.

(Values after patent US10233186B2, “Inhibitors of activin receptor-like kinase” (BLUEPRINT MEDICINES CORPORATION, priority 2016, dated 2019).)
